Data on one sequence can be found in patent US20250114430A1, “MODIFIED PEPTIDOMIMETICS AND METHODS OF USE” (The University of North Carolina at Chapel Hill, priority 2021, published 2025).

No end group written: not given here.

One series is described as follows: in vitro. The following applies: human, serum. The class given is in vitro ADME. On the procedure:
We injected mice intraperitoneally with E. coli LPS, followed by 0.5 mg/kg ELD607 injected intravenously 1 h later.

The format of series [1] is in vitro ADME, human. An excerpt: ELD607 is active in ARDS patient immune cells. Pulmonary neutrophilic inflammation and increased lung neutrophil elastase levels are common in ARDS patient lungs. We therefore evaluated whether ELD607 remained stable in BAL samples patients with ARDS caused by bacterial pneumonia. […] (FIG. 27, panel A).
The target in a further series is Orai1 (Homo sapiens, UniProt Q96D31). As to the kind of experiment: Orai1 immunocytochemistry on immune cells of ARDS/bacterial pneumonia patients. The class given is cell-based. On the set-up: immune cells of ARDS/bacterial pneumonia patients; endogenous in cells; host or cells: immune cells from tracheal aspirates of ARDS/bacterial pneumonia patients. The following applies: paired patient samples. An excerpt:
We then performed Orai1 immunocytochemistry on paired samples of immune cells of ARDS/bacterial pneumonia patients. Cells derived from each patient were exposed to either vehicle, ELD607, or scrambled ELD607 (FIG. 27, panels D and E).

Series [2] deals with T1, human neutrophil elastase (Homo sapiens, UniProt P08246).
T1 sequence (P08246 30-267): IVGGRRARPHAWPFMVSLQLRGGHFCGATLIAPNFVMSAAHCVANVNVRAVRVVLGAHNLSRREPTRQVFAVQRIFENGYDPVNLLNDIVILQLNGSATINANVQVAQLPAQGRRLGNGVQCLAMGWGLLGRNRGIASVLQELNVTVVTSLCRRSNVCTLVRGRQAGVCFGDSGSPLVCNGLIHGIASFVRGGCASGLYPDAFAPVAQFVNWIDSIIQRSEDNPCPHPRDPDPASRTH
The class given is in vitro ADME. On the procedure: Peptides were exposed to NE over time, and the reaction was stopped by addition of sivelestat. HPLC was then performed in order to determine peptide stability. N=3-4 replicates per time point.
HEK293T cells were plated and incubated for 2 hours with Fluo-4 plus or minus ELD peptides, with fluorescent images taken every 30 seconds for 2-6 minutes at excitation/emission wavelengths of 488/530 nm. […] Candidate peptides ELD604, 607, 601, and 100 were tested for resistance against protease degradation, wherein the peptides were incubated with neutrophil elastase, treated with the elastase inhibitor sivelestat at various timepoints to halt ongoing reactions, and then analyzed by HPLC (FIG. 9).
(§1) Endogenous Orai1/store operated Ca^2+ influx have been extensively studied in HEK293T cells, so this cell type was used to understand ELD607-Orai1 interactions. […] Thapsigargin is a SERCA pump inhibitor that prevents uptake of cytosolic Ca^2+ into the endoplasmic reticulum. Thapsigargin is commonly used to stimulate Orai1/store operated Ca^2+ influx. […] Dynamic light scattering (DLS) was used to evaluate binding of ELD607 to peptides of Orai1 extracellular loops. […] Thus, it was concluded that ELD607 interacts with Orai1.

Series [3] deals with E. coli lipopolysaccharide (LPS). As to the kind of experiment: E. coli LPS acute respiratory distress syndrome (ARDS) model. The class given is in vivo, mice. As to conditions: 3 mg/kg LPS. On the procedure: FIG. 34 panels B-D show lung injury score (FIG. 34 panel B), % weight loss (FIG. 34 panel C), and % BAL neutrophils (FIG. 34 […]) in relation to FIG. 34 panel A. Lung injury scoring system taken from Aeffner et al. Mouse Models of Acute Respiratory Distress Syndrome: A Review of Analytical Approaches, Pathologic Features, and Common Measurements. 2015 Tox Pathol.
ELD607 reduces inflammation in an acute respiratory distress syndrome (ARDS) model. Mice were intratracheally to 3 mg/kg E. coli lipopolysaccharide (LPS). 0.5 mg/kg ELD607 was instilled intranasally 1 or 6 h later. As a control, 3 mg/kg dexamethasone was given intranasally.

The next series has as its system house dust mite allergen. As to the kind of experiment: House dust mite (HDM) allergic lung inflammation model. The class given is in vivo, mice. The following applies: HDM 14 days, 0.5 mg/kg intranasally for 2 days. On the procedure:
Mice were exposed to HDM allergen for 14 days, with […] ELD100 or […] ELD607 instilled intranasally for 2 days before sacrifice.
ELD607 reduces allergic inflammation. Mice were exposed to house dust mite allergen for 14 days. 0.5 mg/kg ELD100 or ELD607 were instilled intranasally for 2 days before sacrifice.

In series [4] the target is T2, Orai1 extracellular peptide 1 (OP1) (Homo sapiens, UniProt Q96D31).
T2 construct: corresponding to amino acids 106-119 ([…]
In words: Dynamic light scattering binding to Orai1 extracellular loop peptide OP1. The following applies: DLS, Orai1 amino acids 106-119.
Source text: as §1

In a further series the test system is HEK293T cells. As to the kind of experiment: Inhibition of Ca^2+ influx in HEK293T cells after pre-incubation of peptide in CF sputum. The class given is cell-based. As to conditions: peptide incubated 6 h in CF sputum, then HEK293T cells, thapsigargin.

Chain of Orai1 (Q96D31 whole entry): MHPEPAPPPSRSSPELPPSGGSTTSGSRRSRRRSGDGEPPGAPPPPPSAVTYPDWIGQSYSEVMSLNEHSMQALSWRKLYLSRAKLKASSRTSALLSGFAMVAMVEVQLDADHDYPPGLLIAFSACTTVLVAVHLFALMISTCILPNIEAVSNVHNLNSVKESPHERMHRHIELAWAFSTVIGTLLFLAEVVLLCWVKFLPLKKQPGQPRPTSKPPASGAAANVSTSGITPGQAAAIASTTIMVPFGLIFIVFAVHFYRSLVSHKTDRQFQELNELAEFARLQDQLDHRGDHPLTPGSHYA

By amount remaining is commonly meant the share of the starting amount still present when the sample was taken. Consider VHDIVNMLIRG [ELD607, VHDIVNMLIRG], for which the share remaining at 4 h in “in vitro” came out at 100%. Besides, the “stability in ARDS BAL” value in series [1] is “remained stable over 8 h”. Also, the Orai1 levels result at Orai1 was “significant reduction in Orai1 levels”. In series [2], the “stability against neutrophil elastase” value is reported as “significant increase in stability” and the “stability relative to a6 after exposure to human neutrophil elastase” value is on record as “four times more stable”. Further, in series [3] (0.5 mg/kg ELD607 intranasally), the BAL neutrophilia entry is on record as “attenuated BAL neutrophilia” and the weight loss entry is “reduced weight loss”. Further, the “lung damage (lung injury score)” value in series [3] (0.5 mg/kg ELD607 intranasally 1 or 6 h later) is on record as “significantly reduced lung damage caused by LPS”. In the series with house dust mite allergen, the BAL eosinophilia entry was “significantly reduced”, the BAL macrophages result is reported as “increased BAL macrophages” and the BAL neutrophilia entry is “significantly reduced BAL neutrophilia”. Besides, the “interaction with OP1 (Z-average increase)” value in series [4] is “significant interactions”. For the same sequence, the “inhibition of Ca^2+ influx after pre-exposure to CF sputum” value in the series with HEK293T cells is “retained full functionality”.
